This passage reports melting point results from patent publication US20040006047A1, “Heterocyclic amides, a process for their preparation, compositions comprising them and their use” (priority 2001, published 2004).

`CC1(C)OCC(NC(=O)c2cnccc2C(F)(F)F)CO1` [Example E, N-(2,2-Dimethyl-1,3-dioxa-cyclohexyl)-4-trifluoromethylnicotinamide]: the melting point (usually the temperature, or range, at which the solid turns liquid) lay in the range of 155 to 156 °C.
As for `O=C(NC1CCOCC1)c1cnccc1C(F)(F)F` [Example A, N-(Tetrahydropyran-4-yl)-4-trifluoromethylnicotinamide], the figure is 149 to 150 °C; as for `O=C(NC1CC[S+]([O-])CC1)c1cnccc1C(F)(F)F` (stereo not shown) [Example C, N-(Tetrahydrothiopyran-4-yl)-4-trifluoromethylnicotinamide S-oxide], 243 to 244 °C; as for `O=C(NC1CCS(=O)(=O)CC1)c1cnccc1C(F)(F)F` [Example D, N-(Tetrahydrothiopyran-4-yl)-4-trifluoromethylnicotinamide S,S-dioxide], 248 °C (dec.).
